Two compounds from patent US4297096A, “Alkyl, alkenyl, and aryl substituted triazene compounds, their salts and production thereof” (Fujisawa Pharmaceutical Co. Ltd., priority 1980, dated 1981) can be followed below.

The series in a line: Solubility. The format is physicochemical.
Setting [1] is: Benzene, hexane and ether, crystals of Example 1.
Where [2] appears, read: Benzene, hexane and ether, crystals of Example 2 (pure).
[3] abbreviates: Chloroform, ethyl acetate, methanol and acetone, crystals of Example 1.
Setting [4] is: Chloroform, ethyl acetate, methanol and acetone, crystals of Example 2 (pure).
Where [5] appears, read: water, crystals of Example 2 (pure).

Take `CCCC/C=C/C=C/C=C/C=NN=NO` [FR-900184]: the Solubility entry was “Sparingly soluble” under setting [1]; “Sparingly soluble” under setting [2]; “Soluble” under setting [3]; “Soluble” under setting [4]; “Insoluble” (water, crystals of Example 1); “Insoluble” under setting [5].

Regarding `CCC/C=C/C/C=C/C=C/C=NN=NO` [FR-900190], the Solubility entry reads like this: under setting [1], “Sparingly soluble”; under setting [2], “Sparingly soluble”; under setting [3], “Soluble”; under setting [4], “Soluble”; (water, crystals of Example 1) “Insoluble”; under setting [5], “Insoluble”.
